{"source": "patent US20220235064A1", "about": "(WELLMARKER BIO CO., LTD., priority 2019, published 2022)", "key": {"RON tyrosine kinase": {"target": "T1, RON tyrosine kinase (Homo sapiens, UniProt Q04912)", "T1 construct": "purchased Carna Bioscience", "T1 sequence (Q04912 25-1400)": "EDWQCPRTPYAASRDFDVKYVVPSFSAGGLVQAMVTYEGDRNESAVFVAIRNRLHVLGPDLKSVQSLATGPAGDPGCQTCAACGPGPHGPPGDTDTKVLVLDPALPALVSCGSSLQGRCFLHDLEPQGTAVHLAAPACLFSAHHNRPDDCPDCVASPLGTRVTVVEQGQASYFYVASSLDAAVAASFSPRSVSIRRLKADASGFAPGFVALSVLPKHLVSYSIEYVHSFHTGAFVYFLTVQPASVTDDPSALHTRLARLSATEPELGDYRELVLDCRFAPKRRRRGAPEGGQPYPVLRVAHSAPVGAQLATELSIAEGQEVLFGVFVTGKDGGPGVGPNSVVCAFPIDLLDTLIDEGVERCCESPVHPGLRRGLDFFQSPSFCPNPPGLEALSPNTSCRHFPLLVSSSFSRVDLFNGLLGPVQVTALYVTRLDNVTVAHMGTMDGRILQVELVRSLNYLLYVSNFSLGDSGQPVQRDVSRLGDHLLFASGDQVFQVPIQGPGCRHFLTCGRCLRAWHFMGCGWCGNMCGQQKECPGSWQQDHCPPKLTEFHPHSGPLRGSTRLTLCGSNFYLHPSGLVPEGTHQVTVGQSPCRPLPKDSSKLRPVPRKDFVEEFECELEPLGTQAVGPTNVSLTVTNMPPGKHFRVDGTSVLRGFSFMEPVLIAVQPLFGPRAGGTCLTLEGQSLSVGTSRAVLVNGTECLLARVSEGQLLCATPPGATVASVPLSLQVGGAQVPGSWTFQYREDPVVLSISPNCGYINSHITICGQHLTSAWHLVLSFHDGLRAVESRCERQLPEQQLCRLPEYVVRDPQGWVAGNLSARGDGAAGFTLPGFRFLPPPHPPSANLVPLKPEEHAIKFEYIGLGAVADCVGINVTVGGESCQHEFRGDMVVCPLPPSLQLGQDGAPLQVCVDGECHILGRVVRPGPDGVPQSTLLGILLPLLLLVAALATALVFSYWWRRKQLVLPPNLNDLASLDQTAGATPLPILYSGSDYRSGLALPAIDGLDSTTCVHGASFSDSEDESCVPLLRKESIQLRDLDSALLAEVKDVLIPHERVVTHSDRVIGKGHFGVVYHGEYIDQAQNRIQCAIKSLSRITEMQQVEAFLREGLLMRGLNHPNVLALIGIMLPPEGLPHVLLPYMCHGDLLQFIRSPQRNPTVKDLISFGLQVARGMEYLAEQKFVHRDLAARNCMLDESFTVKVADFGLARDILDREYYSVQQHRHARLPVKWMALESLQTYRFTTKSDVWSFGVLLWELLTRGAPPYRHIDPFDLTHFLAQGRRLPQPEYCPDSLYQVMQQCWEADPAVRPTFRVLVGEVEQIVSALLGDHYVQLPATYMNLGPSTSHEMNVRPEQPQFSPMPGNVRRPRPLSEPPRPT", "test": "Enzyme inhibitory activity against RON tyrosine kinase (TR-FRET)", "type": "biochemical", "settings": "RON (Carna Bioscience)", "in_short": "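Recombinant RON was preincubated with compound for 15 min at RT in 50 mM HEPES pH 7.5, 10 mM MgCl2, 1 mM EGTA, 2 mM DTT, 0.01% Tween-20. Enzyme (0.4 nM), ATP (60 μM) and tyrosine peptide (400 nM) were prepared at 2×, 4× and 4× final. After 60 min at RT, EDTA/Eu-anti-phosphotyrosine stop; IC50 from 665 nm TR-FRET emission.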"}, "[1]": {"tested_on": "cancer cell line KM12C, in which RON is activated", "test": "Cell growth inhibitory ability in RON-activated cancer cell line (MTS)", "type": "cell-based", "settings": "Homo sapiens, 48 hours, absorbance 490 nm", "in_short": "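KM12C cells (RON-activated, MEM with FBS) exposed to compound […] for 48 h. MTS added 24 h after treatment ended, incubated 4 h at 37° C, absorbance read at 490 nm. IC50 derived from absorbance.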"}, "[2]": {"tested_on": "cancer cell line KM12C, in which RON is activated", "test": "Cell-killing efficacy in RON-activated cancer cell line (trypan blue)", "type": "cell-based", "in_short": "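KM12C cells seeded 1×10^5 per 60 mm^2 dish in MEM + 10% FBS, then exposed 24 h later to compound at 1 μM or 5 μM for 48 h.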"}, "[3]": {"tested_on": "cancer cell line HT29, in which mutated RON (Δ160) is expressed", "test": "Cell-killing efficacy in RON-mutated cancer cell line HT29 (trypan blue)", "type": "cell-based", "experimental": "(§1) Experimental Example 4: Measurement of Cell-Killing Efficacy of Example Compounds in RON-Mutated Cancer Cell Lines\n(§2) Each of two colorectal cancer cell lines, that is, the cancer cell line HT29 (30038, KCLB, RPMI+10% FBS), in which mutated RON (Δ160) is expressed, and the cancer cell line SW620 (CCL-227, ATCC, RPMI+10% FBS), in which mutated RON (Δ155) is expressed, was dispensed into each 60 mm^2 dish at 1×10^5 cells. After 24 hours, the dish was treated with each of the example compounds at a concentration of 1 μM or 5 μM while performing medium exchange, and then reaction was allowed to proceed for 48 hours. After 48 hours, centrifugation was performed for 4 minutes at 1,500 rpm to collect cells and cell fluid. Thereafter, living cells and dead cells were quantified (n=2) using a trypan blue solution (15250-061, Gibco), and statistical analysis was performed using Excel-T-test. Here, as a negative control, only a solvent (0.10% DMSO) was used; and as a positive control, N-(4-(2-amino-3-chloropyridin-4-yloxy)-3-fluorophenyl)-4-ethoxy-1-(4-fluorophenyl)-2-oxo-1,2-dihydropyridine-3-carboxamide, which is the compound of Example 1 in WO 2008/058229 A1, was used."}, "[4]": {"tested_on": "cancer cell line SW620, in which mutated RON (Δ155) is expressed", "test": "Cell-killing efficacy in RON-mutated cancer cell line SW620 (trypan blue)", "type": "cell-based", "experimental": "as §1, §2"}}, "note": "pIC50: −log10 of the molar value.", "data": [{"smiles": "COc1cc2c(Oc3ccc(NC(=O)c4c5c(cn(-c6ccc(F)cc6)c4=O)CCO5)cc3F)ccnc2cc1NCCCN1CCOCC1", "note": "[Example 188, N-(3-Fluoro-4-((6-methoxy-7-((3-morpholinopropyl)amino)quinolin-4-yl)oxy)phenyl)-5-(4-fluorophenyl)-6-oxo-2,3,5,6-tetrahydrofuro[3,2-c]pyridine-7-carboxamide]", "values": [{"measurement": "pIC50", "setting": "RON tyrosine kinase", "result": 8.49}, {"measurement": "pIC50", "setting": "[1]", "result": 8.10}, {"measurement": "cytotoxicity at 1 µM", "setting": "[2]; Homo sapiens, 1 μM, 48 hours, trypan blue, n=2, read-out: Cell death (%) Cancer cell line KM12C", "result": 25.4, "unit": "%"}, {"measurement": "cytotoxicity at 5 µM", "setting": "[2]; Homo sapiens, 5 μM, 48 hours, trypan blue, n=2, read-out: Cell death (%) Cancer cell line KM12C", "result": 57.3, "unit": "%"}, {"measurement": "cell-killing effect (in words)", "setting": "[2]; as compared with the positive control", "result": "high cell-killing effect"}, {"measurement": "cell-killing effect (in words)", "setting": "[3]; HT29, as compared with the positive control", "result": "high cell-killing effect"}, {"measurement": "cytotoxicity at 1 µM", "setting": "[3]; Homo sapiens, HT-29, 1 μM, 48 hours, trypan blue, n=2, read-out: Cell death (%) Cancer cell line HT29", "result": 28.7, "unit": "%"}, {"measurement": "cytotoxicity at 5 µM", "setting": "[3]; Homo sapiens, HT-29, 5 μM, 48 hours, trypan blue, n=2, read-out: Cell death (%) Cancer cell line HT29", "result": 94.4, "unit": "%"}, {"measurement": "cytotoxicity at 1 µM", "setting": "[4]; Homo sapiens, SW-620, 1 μM, 48 hours, trypan blue, n=2, read-out: Cell death (%) Cancer cell line SW620", "result": 26.9, "unit": "%"}, {"measurement": "cytotoxicity at 5 µM", "setting": "[4]; Homo sapiens, SW-620, 5 μM, 48 hours, trypan blue, n=2, read-out: Cell death (%) Cancer cell line SW620", "result": 31.6, "unit": "%"}, {"measurement": "cell-killing effect (in words)", "setting": "[4]; SW620, as compared with the positive control", "result": "high cell-killing effect"}]}]}
